Measured values taken from patent publication EP4663635A1, “CRYSTALLINE FORM OF SULFONAMIDE DERIVATIVE AND PREPARATION METHOD THEREFOR” (Jiangsu Hengrui Pharmaceuticals Co., Ltd., priority 2023, dated 2024).

Experiments:
[1] = Hygroscopicity study of crystal forms (DVS); format: physicochemical; conditions: for 0.0%RH-80.0%RH: DVS mass change, 25 °C; for Crystal form: crystal form after DVS test
Method: DVS refers to dynamic vapor sorption: The analysis was performed using SMS DVS Advantage; at 25 °C, the humidity was changed as follows: 50%-95%-0%-95%-50%, in steps of 10% (5% for the last step) (specific humidity ranges are shown in corresponding patterns, and those listed here were used in most cases); the criterion was dm/dt being not greater than 0.002%.
Surface Measurement Systems intrinsic DVS was adopted. At 25 °C, the crystal forms were tested in a humidity range of 0%-95%, with increments of 10%. The criterion was that each gradient mass change dM/dT is less than 0.002%, TMAX 360 min, two cycles.

[2] = Long-term/accelerated stability of crystal forms; format: physicochemical
Method: Free-state samples were sealed in aluminum foil bags and left to stand in 25 °C/60% RH and 40 °C/75% RH conditions to test their stability.

[3] = Stability influencing factor study of crystal forms; format: physicochemical
Method: Free-state samples were spread out, left to stand in open flasks, and subjected to 30-day stability tests in light exposure (4500 Lux), high temperature (40 °C and 60 °C), and high humidity (RH 75% and RH 92.5%) conditions.

KAT6A = biological target: T1, KAT6A (Homo sapiens, UniProt Q92794); test: Enzymatic activity assay KAT6 (AlphaScreen method); format: biochemical; conditions: KAT enzyme 1.25 nM, Ac-CoA 1000 nM, H3 55 nM
T1 construct: purchased Chempartner (customized)
Excerpt: • 1. KAT6A (customized by Chempartner) • 2. Ovalbumin (Sigma-Aldrich, A5378-5G) • 3. 2 M Tris-HCl solution, pH 7.8, sterile (Sangon, B548140-0500) • 4. 5 M NaCl solution (Sangon, B548121-0100) • 5. EDTA (0.5 M), pH 8.0, RNase-free (Thermofisher, AM9260G) • 6. Tween-20 (Sangon, A100777-0500) • 7. DTT, 1 M (Invitrogen, P2325) • 8. Acetyl coenzyme A (Ac-CoA, CAYMAN, Cat. No. 16160) • 9. Recombinant histone H3.1 biotinylated (human) (Active Motif 31696) • 10. 384-well plate, light gray (PerkinElmer, Cat. No. 6005350) • 11. Anacardic acid (MCE, Cat. No. HY-N2020) • 12. AlphaScreen streptavidin donor beads, 5 mg (PerkinElmer, 6760002) • 13. AlphaScreen protein A acceptor beads, 5 mg (PerkinElmer, 6760137M) • 14. Acetylated-lysine antibody #9441 (CST 9441S) • 15. PHERA star microplate reader (BMG labtech)
• a. 1× assay buffer: 100 mM Tris-HCl, pH 7.8; 15 mM NaCl; 1 mM EDTA; 0.01% tween-20; 1 mM DTT; 0.01% m/v ovalbumin. • b. KAT enzyme solution: 1.25 nM (final concentration), prepared in 1× assay buffer. • c. […]
The prepared enzyme solution was added to a 384-well plate at 3 µL/well, and 3 µL of 1× assay buffer was added to each well in columns 23 and 24 (Min). […] Plate reading was performed on the microplate reader, and AlphaScreen counts were recorded. Plotting was performed using the Graphpad software, and the IC50 values of the compounds were calculated. […]

ZR-75-1 = test: Anti-ZR-75-1 proliferation assay (CellTiter-Glo); format: cell-based; conditions: CTG assay on day 14
Excerpt: • 1. ZR-75-1 (ATCC CRL1500) • 2. 1640 medium (Gibco, 22400-089) • 3. 0.25% trypsin-EDTA (1×) (Gibco, 25200-072) • 4. Penicillin-streptomycin (Gibco, 15140-122) • 5. DPBS (1×) (Gibco, 14190-144) • 6. FBS (Gibco, 10091148) • 7. Assay plate, 96-well, black with clear bottom (Corning, 3603) • 8. 96-well non-treated round-bottom plate (JET BIOFIL, TCP-002-096) • 9. CellTiter-Glo buffer (Promega, G756B) • 10. CellTiter-Glo substrate (Promega, G755B) • 11. Automatic cell counter (Countstar, IC1000) • 12. Thermostatic incubator (Thermo, I160) • 13. PHERAstar FS (BMG labtech, PHERAstar FS)
• a. The state of cells was observed under a microscope to make sure that the cell confluence was about 90%. • b. The cell supernatant was discarded. The cells were rinsed with DPBS once, and the DPBS was removed. The cells were digested with a proper amount of trypsin and left to stand at 37 °C for 5 min. • c. The digestion was stopped with an equal volume of 1640 medium containing 10% FBS, and the cell suspension was collected and centrifuged at 300 g for 3 min. The cells were suspended in a proper amount of fresh medium. • d. The resulting cell suspension was collected and cell counting was performed. • e. The cell suspension was diluted to 5 × 10^4 cells/mL, 50 µL/well with 1640 medium containing 10% FBS. Each well contained 2500 ZR-75-1 cells. • f. […]

T1 sequence (Q92794 whole entry, species assumed): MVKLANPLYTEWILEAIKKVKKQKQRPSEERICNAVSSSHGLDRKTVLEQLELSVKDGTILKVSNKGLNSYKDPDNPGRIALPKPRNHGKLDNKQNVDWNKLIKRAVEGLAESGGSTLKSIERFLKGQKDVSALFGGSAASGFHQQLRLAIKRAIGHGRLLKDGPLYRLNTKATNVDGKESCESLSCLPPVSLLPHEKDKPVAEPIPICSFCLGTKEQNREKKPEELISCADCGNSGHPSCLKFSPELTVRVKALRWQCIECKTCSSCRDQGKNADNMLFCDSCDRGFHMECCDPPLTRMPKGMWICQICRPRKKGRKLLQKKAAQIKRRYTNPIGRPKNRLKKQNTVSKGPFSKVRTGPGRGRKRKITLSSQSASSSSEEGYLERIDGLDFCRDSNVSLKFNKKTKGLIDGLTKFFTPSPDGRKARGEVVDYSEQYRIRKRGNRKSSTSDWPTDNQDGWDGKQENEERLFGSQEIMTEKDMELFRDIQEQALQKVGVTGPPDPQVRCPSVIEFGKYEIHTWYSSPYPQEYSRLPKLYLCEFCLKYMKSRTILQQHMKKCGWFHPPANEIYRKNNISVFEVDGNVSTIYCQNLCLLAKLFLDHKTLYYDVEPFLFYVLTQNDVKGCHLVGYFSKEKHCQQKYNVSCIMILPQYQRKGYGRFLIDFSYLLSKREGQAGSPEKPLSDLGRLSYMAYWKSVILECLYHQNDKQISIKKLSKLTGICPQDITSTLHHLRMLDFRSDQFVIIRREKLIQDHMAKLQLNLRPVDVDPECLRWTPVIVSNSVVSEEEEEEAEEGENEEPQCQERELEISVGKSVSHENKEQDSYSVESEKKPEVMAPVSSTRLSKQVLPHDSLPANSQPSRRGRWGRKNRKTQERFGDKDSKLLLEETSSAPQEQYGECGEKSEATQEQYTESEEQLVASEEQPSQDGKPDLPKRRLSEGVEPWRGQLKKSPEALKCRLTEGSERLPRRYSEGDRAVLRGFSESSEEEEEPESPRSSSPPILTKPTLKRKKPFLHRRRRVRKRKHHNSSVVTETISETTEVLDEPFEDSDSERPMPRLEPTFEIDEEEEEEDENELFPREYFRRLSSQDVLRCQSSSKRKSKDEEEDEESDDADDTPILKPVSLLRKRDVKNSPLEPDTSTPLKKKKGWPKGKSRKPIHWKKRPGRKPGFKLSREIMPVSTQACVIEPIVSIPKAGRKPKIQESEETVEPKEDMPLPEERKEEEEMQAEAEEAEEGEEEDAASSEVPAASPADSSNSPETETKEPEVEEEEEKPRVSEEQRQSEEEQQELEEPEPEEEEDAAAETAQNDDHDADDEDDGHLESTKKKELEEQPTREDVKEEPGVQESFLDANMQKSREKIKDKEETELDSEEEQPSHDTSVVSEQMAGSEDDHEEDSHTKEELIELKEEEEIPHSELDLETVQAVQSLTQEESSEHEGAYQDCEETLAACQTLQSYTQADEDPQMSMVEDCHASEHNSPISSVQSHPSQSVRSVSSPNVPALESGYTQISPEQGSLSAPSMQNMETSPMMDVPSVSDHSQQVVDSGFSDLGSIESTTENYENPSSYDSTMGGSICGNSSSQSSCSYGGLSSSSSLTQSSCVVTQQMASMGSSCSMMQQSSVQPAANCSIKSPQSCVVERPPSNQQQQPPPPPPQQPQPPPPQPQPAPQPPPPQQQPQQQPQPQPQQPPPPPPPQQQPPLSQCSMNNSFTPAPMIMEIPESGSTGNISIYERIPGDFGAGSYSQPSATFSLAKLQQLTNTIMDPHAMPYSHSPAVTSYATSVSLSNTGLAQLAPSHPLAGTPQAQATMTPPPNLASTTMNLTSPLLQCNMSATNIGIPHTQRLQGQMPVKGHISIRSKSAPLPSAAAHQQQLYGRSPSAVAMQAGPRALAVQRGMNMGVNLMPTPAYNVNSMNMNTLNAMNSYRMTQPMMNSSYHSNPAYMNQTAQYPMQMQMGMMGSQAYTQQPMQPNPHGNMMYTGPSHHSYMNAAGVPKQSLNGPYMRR

COc1cccc(OC)c1S(=O)(=O)Nc1noc2cc(Cn3cccn3)c3c(c12)OCCC3 [Crystal form A, N-(5-((1H-pyrazol-1-yl)methyl)-3,4-dihydro-2H-chromeno[8,7-d]isoxazol-9-yl)-2,6-dimethoxybenzenesulfonamide]
No change: Crystal form [1] | Crystal form ([2]; 25 °C/60%RH) | Crystal form ([2]; 40 °C/75%RH)
98.9%: Purity% ([3]; Light exposure (4500 Lux), 14 days) | Purity% ([3]; Light exposure (4500 Lux), 30 days)
99.1%: Purity% ([2]; 25 °C/60%RH, 1 month) | Purity% ([2]; 25 °C/60%RH, 2 months) | Purity% ([2]; 25 °C/60%RH, 3 months) | Purity% ([2]; 25 °C/60%RH, 9 months) | Purity% ([2]; 25 °C/60%RH, 14 days) | Purity% ([2]; 25 °C/60%RH, Initial) | Purity% ([2]; 40 °C/75%RH, 1 month) | Purity% ([2]; 40 °C/75%RH, 2 months) | Purity% ([2]; 40 °C/75%RH, 3 months) | Purity% ([2]; 40 °C/75%RH, 9 months) | Purity% ([2]; 40 °C/75%RH, 14 days) | Purity% ([2]; 40 °C/75%RH, Initial) | Purity% ([3]; 40 °C, 5 days) | Purity% ([3]; 40 °C, 10 days) | Purity% ([3]; 40 °C, 30 days) | Purity% ([3]; 60 °C, 7 days) | Purity% ([3]; 60 °C, 14 days) | Purity% ([3]; 60 °C, 30 days) | Purity% ([3]; 75% RH, 7 days) | Purity% ([3]; 75% RH, 14 days) | Purity% ([3]; 75% RH, 30 days) | Purity% ([3]; 92.5% RH, 7 days) | Purity% ([3]; 92.5% RH, 14 days) | Purity% ([3]; 92.5% RH, 30 days) | Purity% ([3]; Initial, 0 days)
99.0%: Purity% ([3]; Light exposure (4500 Lux), 7 days)
0.10%: 0.0%RH-80.0%RH [1]

COc1cccc(OC)c1S(=O)(=O)Nc1noc2cc(Cn3cccn3)c3c(c12)OCCC3 [Crystal form H, N-(5-((1H-pyrazol-1-yl)methyl)-3,4-dihydro-2H-chromeno[8,7-d]isoxazol-9-yl)-2,6-dimethoxybenzenesulfonamide]
19.91%: 0.0%RH-80.0%RH [1]
No change: Crystal form [1]

COc1cccc(OC)c1S(=O)(=O)Nc1noc2cc(Cn3cccn3)c3c(c12)OCCC3 [Compound of formula 1, N-(5-((1H-pyrazol-1-yl)methyl)-3,4-dihydro-2H-chromeno[8,7-d]isoxazol-9-yl)-2,6-dimethoxybenzenesulfonamide]
0.4 nM: IC50 (ZR-75-1; Homo sapiens, ZR-75-1, 336 h)
0.3 nM: IC50 (KAT6A)
96%: Maximum inhibition rate/Imax% (ZR-75-1)
